In US20160282364A1, “ASSAY FOR INSULIN-DEGRADING ENZYME (IDE) INHIBITORS” (PRESIDENT AND FELLOWS OF HARVARD COLLEGE, priority 2013, published 2016):

Legend:
GCGR−/− mice = experiment: Glucose tolerance tests in glucagon receptor knockout mice; assay type: in vivo, mouse; settings: 80 mg/kg
Description: In vivo studies, general information. Wild-type C57BL/6J and diet-induced obese (DIO) C57BL/6J age-matched male adult mice were purchased from Jackson Laboratories. The age range was 13 to 15 weeks for lean mice, and 24 to 26 weeks for DIO mice. All animals were individually housed on a 14-h light, 10-h dark schedule at the Biology Research Infrastructure (BRI), Harvard University. Cage enrichment included cotton bedding and a red plastic hut. Water and food were available ad libitum, consisting respectively of normal chow (Prolab® RHM 3000) or high-fat diet (60 kcal % fat, D12492, Research Diets Inc.). […]
Glucose tolerance tests GTT and blood glucose measurements. […] Blood glucose was measured using AccuCheck® meters (Aviva) from blood droplets obtained from a small nick at the tip of the tail, at timepoints −45, 0, 15, 30, 45, 60, 90 and 120 min with reference to the time of glucose injection. The area of the blood glucose response profile curve corresponding to each animal was calculated by the trapezoid method^17, using as reference each individual baseline blood glucose measurement prior to glucose administration (t=0). […]

[1] = target: T1, endogenous IDE in mouse plasma (Mus musculus, UniProt Q9JHR7, L174F/R633G/V509I/Y332H); experiment: LC-MS assay for ex vivo degradation of CGRP in mouse plasma; assay type: biochemical; settings: CGRP 10 μM
T1 construct: endogenous IDE in mouse plasma; from tissue; host or cells: mouse plasma
Method: All data points and error bars represent mean±SEM. Significance tests were performed using two-tail Student's t-test, and significance levels shown in the figures are p<0.05 (*) or p<0.01 (**) versus the vehicle-only control group. The in vitro selection of the DNA-templated macrocycle libraryl^16,17 used 20 μg His6-tagged mouse IDE immobilized on cobalt magnetic beads (Dynabeads, Invitrogen). IDE proteolytic activity was assayed with fluorogenic peptide Mca-[…](Dnp)-OH (R&D). IDE inhibition was confirmed using an anti-insulin antibody time-resolved FRET assay (Cysbio), and using an LCMS assay for CGRP cleavage fragments CGRP1-17 and CGRP18-37 in plasma^18. […] IDE degradation assays for insulin and calcitonin-gene related peptide (CGRP). […] Fluorescence was measured using a Tecan Safire 2 plate reader (excitation=320 nm, emission=665 and 620 nm, lag time=60 μs) according the assay manufacturer's recommendations. Degradation of CGRP by endogenous IDE in mouse plasma was analyzed by LC-MS for the formation of CGRP1-17 and CGRP18-37 as previously reported^6.

IDE = IDE (Homo sapiens, UniProt P14735); experiment: Protease assay with fluorogenic peptide substrate Mca-[…](Dnp)-OH; assay type: biochemical; parameters: recombinant human IDE42-1019 (R&D Systems); purchased R&D Systems
Method: All data points and error bars represent mean±SEM. Significance tests were performed using two-tail Student's t-test, and significance levels shown in the figures are p<0.05 (*) or p<0.01 (**) versus the vehicle-only control group. The in vitro selection of the DNA-templated macrocycle libraryl^16,17 used 20 μg His6-tagged mouse IDE immobilized on cobalt magnetic beads (Dynabeads, Invitrogen). IDE proteolytic activity was assayed with fluorogenic peptide Mca-[…](Dnp)-OH (R&D). IDE inhibition was confirmed using an anti-insulin antibody time-resolved FRET assay (Cysbio), and using an LCMS assay for CGRP cleavage fragments CGRP1-17 and CGRP18-37 in plasma^18. […] Protease assays with fluorogenic peptide substrates. […] (R&D). All assay data points were obtained in duplicate.

T1 sequence (Q9JHR7 whole entry L174F/Y332H/V509I/R633G): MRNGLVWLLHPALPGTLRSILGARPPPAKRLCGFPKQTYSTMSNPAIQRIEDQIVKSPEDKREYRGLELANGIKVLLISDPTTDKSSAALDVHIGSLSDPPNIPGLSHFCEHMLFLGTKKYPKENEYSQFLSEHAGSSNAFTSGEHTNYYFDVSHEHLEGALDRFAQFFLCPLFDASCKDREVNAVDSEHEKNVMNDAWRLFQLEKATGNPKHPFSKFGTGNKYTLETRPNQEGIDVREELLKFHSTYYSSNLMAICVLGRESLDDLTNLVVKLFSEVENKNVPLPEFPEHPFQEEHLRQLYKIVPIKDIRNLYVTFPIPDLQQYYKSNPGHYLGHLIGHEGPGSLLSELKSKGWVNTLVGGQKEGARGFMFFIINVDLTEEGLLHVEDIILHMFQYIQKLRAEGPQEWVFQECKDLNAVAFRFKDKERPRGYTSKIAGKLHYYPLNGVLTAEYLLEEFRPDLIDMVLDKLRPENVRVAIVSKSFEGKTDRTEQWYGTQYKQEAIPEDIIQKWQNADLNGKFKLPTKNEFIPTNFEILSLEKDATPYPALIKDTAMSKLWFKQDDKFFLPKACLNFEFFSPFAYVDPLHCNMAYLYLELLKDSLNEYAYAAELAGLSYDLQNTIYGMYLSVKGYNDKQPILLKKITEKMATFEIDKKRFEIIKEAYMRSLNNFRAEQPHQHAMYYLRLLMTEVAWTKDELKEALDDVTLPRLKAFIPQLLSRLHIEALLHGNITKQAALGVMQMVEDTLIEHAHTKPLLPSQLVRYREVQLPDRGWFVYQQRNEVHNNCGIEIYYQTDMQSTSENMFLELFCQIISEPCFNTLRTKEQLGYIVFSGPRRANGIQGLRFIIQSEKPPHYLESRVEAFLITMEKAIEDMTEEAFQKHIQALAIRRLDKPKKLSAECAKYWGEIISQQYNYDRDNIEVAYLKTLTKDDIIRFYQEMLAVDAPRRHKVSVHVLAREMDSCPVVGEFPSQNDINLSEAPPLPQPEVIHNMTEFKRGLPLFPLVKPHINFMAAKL
Sequence of IDE (P14735 42-1019): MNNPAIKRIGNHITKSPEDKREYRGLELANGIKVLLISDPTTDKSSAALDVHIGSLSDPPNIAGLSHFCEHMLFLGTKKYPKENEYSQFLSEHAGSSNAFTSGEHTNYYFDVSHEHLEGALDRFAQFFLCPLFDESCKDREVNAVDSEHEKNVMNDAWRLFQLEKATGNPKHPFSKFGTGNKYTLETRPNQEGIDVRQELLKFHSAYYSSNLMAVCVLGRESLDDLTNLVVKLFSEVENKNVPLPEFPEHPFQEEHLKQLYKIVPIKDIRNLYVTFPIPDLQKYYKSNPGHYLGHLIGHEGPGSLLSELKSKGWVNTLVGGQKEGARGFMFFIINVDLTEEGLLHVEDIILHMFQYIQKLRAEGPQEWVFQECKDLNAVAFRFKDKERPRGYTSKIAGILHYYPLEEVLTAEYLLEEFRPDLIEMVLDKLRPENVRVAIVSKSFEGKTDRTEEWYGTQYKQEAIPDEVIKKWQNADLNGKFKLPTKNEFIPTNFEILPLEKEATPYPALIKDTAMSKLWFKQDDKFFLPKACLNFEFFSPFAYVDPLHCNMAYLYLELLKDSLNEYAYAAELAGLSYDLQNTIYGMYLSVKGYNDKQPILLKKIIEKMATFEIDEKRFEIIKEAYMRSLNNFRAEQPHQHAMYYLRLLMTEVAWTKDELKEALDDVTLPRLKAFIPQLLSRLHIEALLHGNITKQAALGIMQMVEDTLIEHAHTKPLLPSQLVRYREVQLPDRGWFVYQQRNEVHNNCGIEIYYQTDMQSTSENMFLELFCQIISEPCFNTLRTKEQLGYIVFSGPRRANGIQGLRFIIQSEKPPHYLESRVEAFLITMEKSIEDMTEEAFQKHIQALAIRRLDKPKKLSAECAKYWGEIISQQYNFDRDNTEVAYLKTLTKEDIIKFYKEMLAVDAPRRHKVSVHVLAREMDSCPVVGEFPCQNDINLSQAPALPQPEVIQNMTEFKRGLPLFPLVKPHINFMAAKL

SMILES	response to i.p. injected glucose (GCGR−/− mice; 6bK vs vehicle)	oral glucose tolerance (GCGR−/− mice; vs vehicle)	inhibition of IDE proteolytic activity, calcitonin-gene related peptide LC-MS assay [1]	IC50 (IDE) [nM]
NCCCC[C@@H]1NC(=O)/C=C/C(=O)N[C@H](C(N)=O)CCCCNC(=O)[C@@H](Cc2ccc(C(=O)c3ccccc3)cc2)NC(=O)[C@H](CC2CCCCC2)NC1=O [Compound 6bK]	virtually identical	improvement		
NC(=O)CCC1NC(=O)C=CC(=O)NC(C(N)=O)CCCCNC(=O)C(Cc2ccc(C(=O)c3ccccc3)cc2)NC(=O)C(CC2CCCCC2)NC1=O (stereo not shown) [Compound 6b]			confirmed	60
